# Test results from patent US10336732B2, “1-heterocyclyl isochromanyl compounds and analogs for treating CNS disorders” (Sunovion Pharmaceuticals Inc., priority 2015, dated 2019).
# Test system: mice
# Assay: Neuropharmacological assay (SmartCube), behavioral signature of compound-treated mice
# Type: in vivo
# Conditions: i.p. 15 min before behavioral test, most efficacious dose(s) of 3 doses
# How it was run: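 Mice received compound i.p. in NMP/PEG/propylene glycol vehicle at 3 doses, 15 min before testing. Video-captured behavior was algorithmically compared with a reference-drug signature database.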
Compound,AD: ADHD (probability that behavioral signature matches class),AG: analgesic (probability that behavioral signature matches class),AX: anxiolytic (probability that behavioral signature matches class),CE: cognitive enhancer (probability that behavioral signature matches class),DP: anti-depressant (probability that behavioral signature matches class),HA: hallucinogen (probability that behavioral signature matches class),MS: mood stabilizer (probability that behavioral signature matches class),PS: anti-psychotic (probability that behavioral signature matches class),SD: sedative hypnotic (probability that behavioral signature matches class),UN: uncharacterized CNS activity (probability that behavioral signature matches class)
"c1cc2c(c3c1CCO[C@@H]3[C@@H]1CCCN1)OCO2 [Compound I-51, (S)-2-((S)-7,9-dihydro-6H-[1,3]dioxolo[4,5-h]isochromen-9-yl)pyrrolidine]",+ (LOQ ≤ + <5%),++ (5% ≤ ++ <25%),++ (5% ≤ ++ <25%),+ (LOQ ≤ + <5%),+ (LOQ ≤ + <5%),+ (LOQ ≤ + <5%),+ (LOQ ≤ + <5%),+ (LOQ ≤ + <5%),+ (LOQ ≤ + <5%),++ (5% ≤ ++ <25%)
"c1cc2c(c3c1CCO[C@H]3[C@@H]1CCCN1)OCO2 [Compound I-52, (S)-2-((R)-7,9-dihydro-6H-[1,3]dioxolo[4,5-h]isochromen-9-yl)pyrrolidine]",+ (LOQ ≤ + <5%),++ (5% ≤ ++ <25%),++++ (50% ≤ ++++),++ (5% ≤ ++ <25%),++ (5% ≤ ++ <25%),+ (LOQ ≤ + <5%),+ (LOQ ≤ + <5%),++ (5% ≤ ++ <25%),+ (LOQ ≤ + <5%),+++ (25% ≤ +++ <50%)
"c1c2c(cc3c1OCO3)[C@@H]([C@@H]1CCCN1)OCC2 [Compound I-53, (S)-2-((S)-7,8-dihydro-5H-[1,3]dioxolo[4,5-g]isochromen-5-yl)pyrrolidine]",+ (LOQ ≤ + <5%),+ (LOQ ≤ + <5%),+ (LOQ ≤ + <5%),+ (LOQ ≤ + <5%),+ (LOQ ≤ + <5%),+ (LOQ ≤ + <5%),+ (LOQ ≤ + <5%),+ (LOQ ≤ + <5%),+ (LOQ ≤ + <5%),+ (LOQ ≤ + <5%)
"c1c2c(cc3c1OCO3)[C@H]([C@@H]1CCCN1)OCC2 [Compound I-54, (S)-2-((R)-7,8-dihydro-5H-[1,3]dioxolo[4,5-g]isochromen-5-yl)pyrrolidine]",+ (LOQ ≤ + <5%),++ (5% ≤ ++ <25%),+++ (25% ≤ +++ <50%),++ (5% ≤ ++ <25%),+++ (25% ≤ +++ <50%),+ (LOQ ≤ + <5%),++ (5% ≤ ++ <25%),++ (5% ≤ ++ <25%),+ (LOQ ≤ + <5%),+ (LOQ ≤ + <5%)
"c1cc(-c2ccc3c(c2)CCO[C@@H]3[C@@H]2CCCN2)on1 [Compound I-55, 5-((S)-1-((S)-pyrrolidin-2-yl)isochroman-6-yl)isoxazole]",+ (LOQ ≤ + <5%),+ (LOQ ≤ + <5%),+ (LOQ ≤ + <5%),+ (LOQ ≤ + <5%),+ (LOQ ≤ + <5%),+ (LOQ ≤ + <5%),+ (LOQ ≤ + <5%),+ (LOQ ≤ + <5%),+ (LOQ ≤ + <5%),+ (LOQ ≤ + <5%)
"c1cc(-c2ccc3c(c2)CCO[C@H]3[C@@H]2CCCN2)on1 [Compound I-56, 5-((R)-1-((S)-pyrrolidin-2-yl)isochroman-6-yl)isoxazole]",++ (5% ≤ ++ <25%),+++ (25% ≤ +++ <50%),++ (5% ≤ ++ <25%),++ (5% ≤ ++ <25%),+++ (25% ≤ +++ <50%),+ (LOQ ≤ + <5%),++ (5% ≤ ++ <25%),++ (5% ≤ ++ <25%),+ (LOQ ≤ + <5%),+ (LOQ ≤ + <5%)
"c1ccc(-c2ccc3c(c2)CCO[C@@H]3[C@@H]2CCCN2)nc1 [Compound I-57, 2-((S)-1-((S)-pyrrolidin-2-yl)isochroman-6-yl)pyridine]",+ (LOQ ≤ + <5%),+ (LOQ ≤ + <5%),+ (LOQ ≤ + <5%),+ (LOQ ≤ + <5%),+ (LOQ ≤ + <5%),+ (LOQ ≤ + <5%),+ (LOQ ≤ + <5%),+ (LOQ ≤ + <5%),+ (LOQ ≤ + <5%),+ (LOQ ≤ + <5%)
"c1ccc(-c2ccc3c(c2)CCO[C@H]3[C@@H]2CCCN2)nc1 [Compound I-58, 2-((R)-1-((S)-pyrrolidin-2-yl)isochroman-6-yl)pyridine]",+ (LOQ ≤ + <5%),++ (5% ≤ ++ <25%),++ (5% ≤ ++ <25%),+ (LOQ ≤ + <5%),+++ (25% ≤ +++ <50%),+ (LOQ ≤ + <5%),++ (5% ≤ ++ <25%),++ (5% ≤ ++ <25%),+ (LOQ ≤ + <5%),+ (LOQ ≤ + <5%)
"CC1(C)CN[C@H]([C@@H]2OCCc3ccccc32)C1 [Compound I-59, (S)-2-((R)-isochroman-1-yl)-4,4-dimethylpyrrolidine]",+ (LOQ ≤ + <5%),+ (LOQ ≤ + <5%),++ (5% ≤ ++ <25%),++ (5% ≤ ++ <25%),++ (5% ≤ ++ <25%),+ (LOQ ≤ + <5%),++ (5% ≤ ++ <25%),++ (5% ≤ ++ <25%),+ (LOQ ≤ + <5%),+ (LOQ ≤ + <5%)

# Same assay, conditions: i.p. 15 min before behavioral test, most efficacious dose(s) of 3 doses
row,Compound,XG: anxiogenic (probability that behavioral signature matches class)
1,"c1cc2c(c3c1CCO[C@@H]3[C@@H]1CCCN1)OCO2 [Compound I-51, (S)-2-((S)-7,9-dihydro-6H-[1,3]dioxolo[4,5-h]isochromen-9-yl)pyrrolidine]",+ (LOQ ≤ + <5%)
2,"c1cc2c(c3c1CCO[C@H]3[C@@H]1CCCN1)OCO2 [Compound I-52, (S)-2-((R)-7,9-dihydro-6H-[1,3]dioxolo[4,5-h]isochromen-9-yl)pyrrolidine]",+ (LOQ ≤ + <5%)
3,"c1c2c(cc3c1OCO3)[C@@H]([C@@H]1CCCN1)OCC2 [Compound I-53, (S)-2-((S)-7,8-dihydro-5H-[1,3]dioxolo[4,5-g]isochromen-5-yl)pyrrolidine]",+ (LOQ ≤ + <5%)
4,"c1c2c(cc3c1OCO3)[C@H]([C@@H]1CCCN1)OCC2 [Compound I-54, (S)-2-((R)-7,8-dihydro-5H-[1,3]dioxolo[4,5-g]isochromen-5-yl)pyrrolidine]",+ (LOQ ≤ + <5%)
5,"c1cc(-c2ccc3c(c2)CCO[C@@H]3[C@@H]2CCCN2)on1 [Compound I-55, 5-((S)-1-((S)-pyrrolidin-2-yl)isochroman-6-yl)isoxazole]",+ (LOQ ≤ + <5%)
6,"c1cc(-c2ccc3c(c2)CCO[C@H]3[C@@H]2CCCN2)on1 [Compound I-56, 5-((R)-1-((S)-pyrrolidin-2-yl)isochroman-6-yl)isoxazole]",+ (LOQ ≤ + <5%)
7,"c1ccc(-c2ccc3c(c2)CCO[C@@H]3[C@@H]2CCCN2)nc1 [Compound I-57, 2-((S)-1-((S)-pyrrolidin-2-yl)isochroman-6-yl)pyridine]",+ (LOQ ≤ + <5%)
8,"c1ccc(-c2ccc3c(c2)CCO[C@H]3[C@@H]2CCCN2)nc1 [Compound I-58, 2-((R)-1-((S)-pyrrolidin-2-yl)isochroman-6-yl)pyridine]",+ (LOQ ≤ + <5%)
9,"CC1(C)CN[C@H]([C@@H]2OCCc3ccccc32)C1 [Compound I-59, (S)-2-((R)-isochroman-1-yl)-4,4-dimethylpyrrolidine]",+ (LOQ ≤ + <5%)
